Ki data for 29 compounds are collected here from US9718821B2, “Pyridopyrimidinone inhibitors of kinases” (AbbVie Inc., priority 2012, dated 2017).

This assay addresses T1, GST-tagged-Wee1 kinase (Homo sapiens, UniProt P30291).
T1 construct: purchased Carnabio 05-177
Put plainly: Wee1 time-resolved fluorescence equilibrium binding assay (displacement of Oregon Green-labeled ATP-competitive kinase probe). The note with it: enzyme binding data; GST-tagged-Wee1 kinase 2 nM, fluorescent probe 300 nM, inhibitor 0.003 to 10 micromolar, 1 hour incubation; read-out: Wee-1 binding (Ki nM). How it is done: Wee1 kinase was assayed using a time-resolved fluorescence equilibrium binding assay monitoring displacement of a rapidly reversible Oregon Green-labeled ATP-competitive kinase probe (N-(2-(2-(2-(4-(4-(5-chloro-4-(2-(1-hydroxycyclobutyl)thiazol-5-yl)-1H-pyrrolo[2,3-b]pyridin-2-yl)phenyl)piperazin-1-yl)ethoxy)ethoxy)ethyl)-2′,7′-difluoro-3′,6′-dihydroxy-3-oxo-3H-spiro[isobenzofuran-1,9′-xanthene]-5-carboxamide) by competitive Wee1 inhibitors.
Table 1 depicts enzyme binding data (Ki)for exemplary compounds.

T1 sequence (P30291 whole entry): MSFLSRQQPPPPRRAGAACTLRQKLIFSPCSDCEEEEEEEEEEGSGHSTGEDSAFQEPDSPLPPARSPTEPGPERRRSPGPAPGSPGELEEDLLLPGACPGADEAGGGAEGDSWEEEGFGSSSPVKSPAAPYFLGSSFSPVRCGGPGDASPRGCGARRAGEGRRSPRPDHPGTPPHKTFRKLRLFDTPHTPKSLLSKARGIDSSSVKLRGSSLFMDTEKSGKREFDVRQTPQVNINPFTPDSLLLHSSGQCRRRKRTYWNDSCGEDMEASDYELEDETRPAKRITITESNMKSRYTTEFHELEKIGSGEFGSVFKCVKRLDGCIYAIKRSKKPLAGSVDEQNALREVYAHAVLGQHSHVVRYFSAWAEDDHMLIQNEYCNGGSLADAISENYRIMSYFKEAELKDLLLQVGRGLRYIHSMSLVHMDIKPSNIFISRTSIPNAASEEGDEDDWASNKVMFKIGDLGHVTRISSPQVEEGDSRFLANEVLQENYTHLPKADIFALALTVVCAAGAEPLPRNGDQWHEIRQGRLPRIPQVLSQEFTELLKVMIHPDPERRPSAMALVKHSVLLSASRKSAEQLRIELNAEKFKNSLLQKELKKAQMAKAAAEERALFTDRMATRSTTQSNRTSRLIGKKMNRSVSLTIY

“6-(2,6-dichlorophenyl)-8-methyl-2-(1,2,3,4-tetrahydroisoquinolin-6-ylamino)pyrido[4,3-d]pyrimidin-5(6H)-one [Example 76]”: the Ki was determined as 0.5 nM.

Consider `C=Cc1cn(-c2c(Cl)cccc2Cl)c(=O)c2cnc(Nc3ccc4c(c3)CC(N(C)C)C4)nc12` (centres unmarked) [Example 49, 6-(2,6-dichlorophenyl)-2-{[2-(dimethylamino)-2,3-dihydro-1H-inden-5-yl]amino}-8-ethenylpyrido[4,3-d]pyrimidin-5(6H)-one], for which the Ki was determined as 0.3 nM.

Consider `C=Cc1cn(-c2c(Cl)cccc2Cl)c(=O)c2cnc(Nc3ccc(N4CCC(N(C)C)CC4)cc3)nc12` [Example 50, 6-(2,6-dichlorophenyl)-2-({4-[4-(dimethylamino)piperidin-1-yl]phenyl}amino)-8-ethenylpyrido[4,3-d]pyrimidin-5(6H)-one], for which the Ki was found to be 0.5 nM.

In the case of `C=Cc1cn(-c2c(Cl)cccc2Cl)c(=O)c2cnc(Nc3ccc4c(c3)CNCC43CC3)nc12` [Example 51, 6-(2,6-dichlorophenyl)-2-(2′,3′-dihydro-1′H-spiro[cyclopropane-1,4′-isoquinolin]-7′-ylamino)-8-ethenylpyrido[4,3-d]pyrimidin-5(6H)-one], the inhibitory constant (Ki) was 0.4 nM.

In the case of `C=Cc1cn(-c2c(Cl)cccc2Cl)c(=O)c2cnc(Nc3ccc(N4CC5CNCC5C4)cc3)nc12` (centres unmarked) [Example 52, 6-(2,6-dichlorophenyl)-8-ethenyl-2-{[4-(hexahydropyrrolo[3,4-c]pyrrol-2(1H)-yl)phenyl]amino}pyrido[4,3-d]pyrimidin-5(6H)-one], the Ki is 1.8 nM.

With `CN1Cc2cc(Nc3ncc4c(=O)n(-c5c(Cl)cccc5Cl)cc(CO)c4n3)ccc2C2(CC2)C1` [Example 53, 6-(2,6-dichlorophenyl)-8-(hydroxymethyl)-2-[(2′-methyl-2′,3′-dihydro-1′H-spiro[cyclopropane-1,4′-isoquinolin]-7′-yl)amino]pyrido[4,3-d]pyrimidin-5(6H)-one], the inhibitory constant (Ki) is 0.3 nM.

On to `CN(C)C1Cc2ccc(Nc3ncc4c(=O)n(-c5c(Cl)cccc5Cl)cc(CO)c4n3)cc2C1` (centres unmarked) [Example 54, 6-(2,6-dichlorophenyl)-2-{[2-(dimethylamino)-2,3-dihydro-1H-inden-5-yl]amino}-8-(hydroxymethyl)pyrido[4,3-d]pyrimidin-5(6H)-one], for which the Ki stood at 0.4 nM.

Turning to `CN(C)C1CCN(c2ccc(Nc3ncc4c(=O)n(-c5c(Cl)cccc5Cl)cc(CO)c4n3)cc2)CC1` [Example 55, 6-(2,6-dichlorophenyl)-2-({4-[4-(dimethylamino)piperidin-1-yl]phenyl}amino)-8-(hydroxymethyl)pyrido[4,3-d]pyrimidin-5(6H)-one], the Ki stood at 0.6 nM.

For `C=Cc1cn(-c2c(Cl)cccc2Cl)c(=O)c2cnc(Nc3ccc4c(c3)CNCC4(C)C)nc12` [Example 56, 6-(2,6-dichlorophenyl)-2-[(4,4-dimethyl-1,2,3,4-tetrahydroisoquinolin-7-yl)amino]-8-ethenylpyrido[4,3-d]pyrimidin-5(6H)-one], the inhibitory constant (Ki) turned out to be 0.5 nM.

For `O=c1c2cnc(Nc3ccc4c(c3)CNCC43CC3)nc2c(CO)cn1-c1c(Cl)cccc1Cl` [Example 57, 6-(2,6-dichlorophenyl)-2-(2′,3′-dihydro-1′H-spiro[cyclopropane-1,4′-isoquinolin]-7′-ylamino)-8-(hydroxymethyl)pyrido[4,3-d]pyrimidin-5(6H)-one], the Ki came out at 0.1 nM.

In the case of `CC1(C)CNCc2cc(Nc3ncc4c(=O)n(-c5c(Cl)cccc5Cl)cc(CO)c4n3)ccc21` [Example 58, 6-(2,6-dichlorophenyl)-2-[(4,4-dimethyl-1,2,3,4-tetrahydroisoquinolin-7-yl)amino]-8-(hydroxymethyl)pyrido[4,3-d]pyrimidin-5(6H)-one], the inhibition constant Ki came to 0.1 nM.

As for `C=Cc1cn(-c2c(Cl)cccc2Cl)c(=O)c2cnc(Nc3ccc4c(c3)CCNC4)nc12` [Example 59, 6-(2,6-dichlorophenyl)-8-ethenyl-2-(1,2,3,4-tetrahydroisoquinolin-6-ylamino)pyrido[4,3-d]pyrimidin-5(6H)-one], the Ki was 0.1 nM.

In the case of `C=Cc1cn(-c2c(F)cccc2Cl)c(=O)c2cnc(Nc3ccc(N4CCC(N(C)C)CC4)cc3)nc12` [Example 60, 6-(2-chloro-6-fluorophenyl)-2-({4-[4-(dimethylamino)piperidin-1-yl]phenyl}amino)-8-ethenylpyrido[4,3-d]pyrimidin-5(6H)-one], the inhibition constant (Ki) worked out at 0.5 nM.

`C=Cc1cn(-c2c(F)cccc2Cl)c(=O)c2cnc(Nc3ccc(C4CCN(C)CC4)cc3)nc12` [Example 61, 6-(2-chloro-6-fluorophenyl)-8-ethenyl-2-{[4-(1-methylpiperidin-4-yl)phenyl]amino}pyrido[4,3-d]pyrimidin-5(6H)-one]: the inhibition constant (Ki) turned out to be 0.3 nM.

Turning to `C=Cc1cn(-c2c(F)cccc2Cl)c(=O)c2cnc(Nc3ccc(N4CCN(C)CC4)cc3)nc12` [Example 62, 6-(2-chloro-6-fluorophenyl)-8-ethenyl-2-{[4-(4-methylpiperazin-1-yl)phenyl]amino}pyrido[4,3-d]pyrimidin-5(6H)-one], the inhibitory constant (Ki) came to 0.3 nM.

Consider `C=Cc1cn(-c2c(F)cccc2Cl)c(=O)c2cnc(Nc3ccc4c(c3)CN(C)CC43CC3)nc12` [Example 63, 6-(2-chloro-6-fluorophenyl)-8-ethenyl-2-[(2′-methyl-2′,3′-dihydro-1′H-spiro[cyclopropane-1,4′-isoquinolin]-7′-yl)amino]pyrido[4,3-d]pyrimidin-5(6H)-one], for which the inhibitory constant (Ki) is 0.9 nM.

On to `C=Cc1cn(-c2c(F)cccc2Cl)c(=O)c2cnc(Nc3ccc4c(c3)CC(N(C)C)C4)nc12` (centres unmarked) [Example 64, 6-(2-chloro-6-fluorophenyl)-2-{[2-(dimethylamino)-2,3-dihydro-1H-inden-5-yl]amino}-8-ethenylpyrido[4,3-d]pyrimidin-5(6H)-one], for which the Ki turned out to be 0.5 nM.

Consider `CNc1ncc2c(=O)n(-c3c(Cl)cccc3Cl)cc(C)c2n1` [Example 65, 6-(2,6-dichlorophenyl)-8-methyl-2-(methylamino)pyrido[4,3-d]pyrimidin-5(6H)-one], for which the Ki is 127 nM.

Turning to `Cc1cn(-c2c(F)cccc2Cl)c(=O)c2cnc(Nc3ccc(N4CCN(C)CC4)cc3)nc12` [Example 66, 6-(2-chloro-6-fluorophenyl)-8-methyl-2-{[4-(4-methylpiperazin-1-yl)phenyl]amino}pyrido[4,3-d]pyrimidin-5(6H)-one], the inhibition constant Ki worked out at 0.9 nM.

On to `Cc1cn(-c2c(F)cccc2Cl)c(=O)c2cnc(Nc3ccc4c(c3)CN(C)CC43CC3)nc12` [Example 67, 6-(2-chloro-6-fluorophenyl)-8-methyl-2-[(2′-methyl-2′,3′-dihydro-1′H-spiro[cyclopropane-1,4′-isoquinolin]-7′-yl)amino]pyrido[4,3-d]pyrimidin-5(6H)-one], for which the Ki turned out to be 0.8 nM.

Turning to `Cc1cn(-c2c(F)cccc2Cl)c(=O)c2cnc(Nc3ccc4c(c3)CC(N(C)C)C4)nc12` (centres unmarked) [Example 68, 6-(2-chloro-6-fluorophenyl)-2-{[2-(dimethylamino)-2,3-dihydro-1H-inden-5-yl]amino}-8-methylpyrido[4,3-d]pyrimidin-5(6H)-one], the inhibition constant Ki was determined as 0.9 nM.

For `Cc1cn(-c2c(F)cccc2Cl)c(=O)c2cnc(Nc3ccc(N4CCC(N(C)C)CC4)cc3)nc12` [Example 69, 6-(2-chloro-6-fluorophenyl)-2-({4-[4-(dimethylamino)piperidin-1-yl]phenyl}amino)-8-methylpyrido[4,3-d]pyrimidin-5(6H)-one], the Ki came to 2.4 nM.

Turning to `Cc1cn(-c2c(F)cccc2Cl)c(=O)c2cnc(Nc3ccc4c(c3)CN(C)CC4(C)C)nc12` [Example 70, 6-(2-chloro-6-fluorophenyl)-8-methyl-2-[(2,4,4-trimethyl-1,2,3,4-tetrahydroisoquinolin-7-yl)amino]pyrido[4,3-d]pyrimidin-5(6H)-one], the Ki amounted to 1.6 nM.

As to `Cc1cn(-c2c(F)cccc2Cl)c(=O)c2cnc(Nc3ccc(C4CCN(C)CC4)cc3)nc12` [Example 71, 6-(2-chloro-6-fluorophenyl)-8-methyl-2-{[4-(1-methylpiperidin-4-yl)phenyl]amino}pyrido[4,3-d]pyrimidin-5(6H)-one], the Ki came out at 1.2 nM.

As for `Cc1cn(-c2c(F)cccc2Cl)c(=O)c2cnc(Nc3ccc4c(c3)CCNC4)nc12` [Example 72, 6-(2-chloro-6-fluorophenyl)-8-methyl-2-(1,2,3,4-tetrahydroisoquinolin-6-ylamino)pyrido[4,3-d]pyrimidin-5(6H)-one], the Ki is 5.1 nM.

As for `Cc1cn(-c2c(F)cccc2Cl)c(=O)c2cnc(Nc3ccc4c(c3)CNCC4(C)C)nc12` [Example 73, 6-(2-chloro-6-fluorophenyl)-2-[(4,4-dimethyl-1,2,3,4-tetrahydroisoquinolin-7-yl)amino]-8-methylpyrido[4,3-d]pyrimidin-5(6H)-one], the inhibitory constant (Ki) stood at 1.5 nM.

As for `Cc1cn(-c2c(F)cccc2Cl)c(=O)c2cnc(Nc3ccc4c(c3)CNCC43CC3)nc12` [Example 74, 6-(2-chloro-6-fluorophenyl)-2-(2′,3′-dihydro-1′H-spiro[cyclopropane-1,4′-isoquinolin]-7′-ylamino)-8-methylpyrido[4,3-d]pyrimidin-5(6H)-one], the inhibitory constant (Ki) was found to be 0.6 nM.

In the case of `Cc1cn(-c2c(F)cccc2Cl)c(=O)c2cnc(Nc3ccc4c(c3)CNCC4)nc12` [Example 75, 6-(2-chloro-6-fluorophenyl)-8-methyl-2-(1,2,3,4-tetrahydroisoquinolin-7-ylamino)pyrido[4,3-d]pyrimidin-5(6H)-one], the Ki was found to be 0.8 nM.

Turning to `Cc1cn(-c2c(Cl)cccc2Cl)c(=O)c2cnc(Nc3ccc4c(c3)CNCC4(C)C)nc12` [Example 77, 6-(2,6-dichlorophenyl)-2-[(4,4-dimethyl-1,2,3,4-tetrahydroisoquinolin-7-yl)amino]-8-methylpyrido[4,3-d]pyrimidin-5(6H)-one], the Ki is 0.3 nM.

Usually Ki stands for the equilibrium dissociation constant of an inhibitor or competing ligand from its target.
